Test results: patent US9833423B2 (KOREA RESEARCH INSTITUTE OF CHEMICAL TECHNOLOGY, priority 2011, dated 2017)
≈ marks a conversion by molar mass, not a printed value. Read-outs that look alike come from different tables or passages of the source.

Experiments:
Coxsackie-virus B3 = experiment: Cytopathic effect (CPE) inhibition assay; type: cell-based, Coxsackievirus B3; settings: Table 3, HeLa, 37° C., 2 days; for EC50: Enterovirus B, HeLa37, 48 h, read-out: EC50 Coxsackie-virus B3
Coxsackie B3 = experiment: Multicycle CPE reduction assay; type: cell-based, Coxsackievirus B3; settings: Enterovirus B, 37° C. in Vero cells
Description: (§1) The test compounds were evaluated for anti-picornavirus activity by a multicycle cytopathic effect (CPE) reduction assay. The antiviral activity was initially determined using an MTS [3-(4,5-dimethylthiazol-2-yl)-5-(3-carboxymethoxyphenyl)-2-(4-sulfophenyl)-2H-tetrazolium]-based CPE reduction assay.
(§2) In this regard, cells grown to confluence in 96-well plates were infected with 100 50% cell culture infective doses (CCID50) of virus. After an adsorption period of 2 hrs at 37° C., virus was removed and serial dilutions of the compounds were added. […] After removal of the medium, 90 μl of a culture medium and 10 μl of MTS-phenazine methosulfate (Promega, Leiden, The Netherlands) were added to each well. After an incubation period of 2 hrs at 37° C., the optical density (OD) of each well was read at 498 nm in a microplate reader.
(§3) CPE values for evaluating antiviral activity were calculated using the following Mathmatic Formula 3: […]
(§4) The 50% effective concentration (EC50) and the 50 cytotoxic concentration (CC50) were defined as the concentrations of compound that offered 50% protection against virus-induced CPE and that killed cells by 50%, respectively, and were calculated using logarithmic interpolation.

Rhino 15 = experiment: Multicycle CPE reduction assay; type: cell-based, rhinovirus 15; settings: Enterovirus; 37° C. in HeLa cells
Description: as §1, §2, §3, §4

uninfected cell cultures = experiment: Cytotoxicity (CC50), MTS-based multicycle CPE reduction assay, Experimental Example 2; type: cell-based
Description: as §1, §2
(§5) CPE values for evaluating cytotoxicity were calculated using the following Mathmatic Formula 4: […]
as §4

[1] = as above; type: cell-based; settings: Table 5
Description: as §1, §2, §5, §4

Rhino 72 = experiment: Multicycle CPE reduction assay; type: cell-based, rhinovirus 72; settings: Enterovirus; 37° C. in HeLa cells
Description: as §1, §2, §3, §4

Polio 1 = experiment: microbe, parasite or virus in culture; type: cell-based, poliovirus 1; settings: Enterovirus C, BGM, read-out: Polio 1 EC50
Coxsackie-virus A24 (HG) = experiment: Cytopathic effect (CPE) inhibition assay; type: cell-based, Coxsackievirus A24; settings: Table 3, MRC-5, 37° C., 2 days; for EC50: Enterovirus C, MRC5, 48 h
Echo 11 = experiment: Multicycle CPE reduction assay; type: cell-based, echovirus 11; settings: Enterovirus B; 37° C. in BGM cells
Description: as §1, §2, §3, §4

Polio-virus 3 = experiment: microbe, parasite or virus in culture; type: cell-based, Poliovirus 3; settings: for EC50: Enterovirus C, HeLa37, 48 h, read-out: EC50 Polio-virus 3
Coxsackie A16 = experiment: Multicycle CPE reduction assay; type: cell-based, Coxsackievirus A16; settings: Enterovirus A, A16, MRC5; 37° C. in MRC-5 cells
Description: as §1, §2, §3, §4

Rhino 9 = experiment: Multicycle CPE reduction assay; type: cell-based, rhinovirus 9; settings: Enterovirus; 37° C. in HeLa cells
Description: as §1, §2, §3, §4

Rhino 41 = experiment: Multicycle CPE reduction assay; type: cell-based, rhinovirus 41; settings: Enterovirus; 37° C. in HeLa cells
Description: as §1, §2, §3, §4

Rhino 45 = experiment: Multicycle CPE reduction assay; type: cell-based, rhinovirus 45; settings: 37° C. in HeLa cells
Description: as §1, §2, §3, §4

in vitro = settings: human, CC50
Rhino 42 = experiment: Multicycle CPE reduction assay; type: cell-based, rhinovirus 42; settings: Enterovirus; 37° C. in HeLa cells
Description: as §1, §2, §3, §4

[2] = tested on: coxsackieviruses B3, A16, A9, and A21; experiment: Multicycle CPE reduction assay, text summary; type: cell-based; settings: Table 5; read-out: EC50 against coxsackieviruses B3, A16, A9, and A21
Description: as §1, §2, §3, §4

Rhino 86 = experiment: Multicycle CPE reduction assay; type: cell-based, rhinovirus 86; settings: Enterovirus; 37° C. in HeLa cells
Description: as §1, §2, §3, §4

Coxsackie A21 = experiment: Multicycle CPE reduction assay; type: cell-based, Coxsackievirus A21; settings: Enterovirus C, A21, MRC5, read-out: Coxsackie A21 EC50
Echo 9 = experiment: Multicycle CPE reduction assay; type: cell-based, echovirus 9; settings: Enterovirus B, MRC5; 37° C. in MRC-5 cells
Description: as §1, §2, §3, §4

Rhino 39 = experiment: Multicycle CPE reduction assay; type: cell-based, rhinovirus 39; settings: Enterovirus; 37° C. in HeLa cells
Description: as §1, §2, §3, §4

Rhino 70 = experiment: Multicycle CPE reduction assay; type: cell-based, rhinovirus 70
Description: as §1, §2, §3, §4

Rhino 29 = experiment: Multicycle CPE reduction assay; type: cell-based, rhinovirus 29; settings: Enterovirus; 37° C. in HeLa cells
Description: as §1, §2, §3, §4

Coxsackie-virus B1 = experiment: Cytopathic effect (CPE) inhibition assay; type: cell-based, Coxsackievirus B1; settings: Table 3, HeLa, 37° C., 2 days; for EC50: Enterovirus B, HeLa37, 48 h, read-out: EC50 Coxsackie-virus B1
Rhino 89 = experiment: Multicycle CPE reduction assay; type: cell-based, rhinovirus 89; settings: Enterovirus; 37° C. in HeLa cells
Description: as §1, §2, §3, §4

Rhino 63 = experiment: Multicycle CPE reduction assay; type: cell-based, rhinovirus 63; settings: Enterovirus; 37° C. in HeLa cells
Description: as §1, §2, §3, §4

Polio 3 = experiment: microbe, parasite or virus in culture; type: cell-based, poliovirus 3; settings: Enterovirus C, BGM, read-out: Polio 3 EC50
Entero-virus 70 = experiment: Cytopathic effect (CPE) inhibition assay; type: cell-based, Enterovirus 70; settings: Enterovirus D, MRC5, 48 h; Table 3; MRC-5, 37° C., 2 days
Rhino 85 = experiment: Multicycle CPE reduction assay; type: cell-based, rhinovirus 85; settings: Enterovirus; 37° C. in HeLa cells
Description: as §1, §2, §3, §4

Rhino 14 = experiment: Multicycle CPE reduction assay; type: cell-based, rhinovirus 14; settings: Enterovirus; 37° C. in HeLa cells
Description: as §1, §2, §3, §4

Rhino 2 = experiment: Multicycle CPE reduction assay; type: cell-based, rhinovirus 2; settings: Enterovirus; 37° C. in HeLa cells
Description: as §1, §2, §3, §4

Entero 71 = experiment: Multicycle CPE reduction assay; type: cell-based, enterovirus 71; settings: Enterovirus A; 37° C. in RD cells
Description: as §1, §2, §3, §4

Coxsackie-virus A24 (DN) = experiment: Cytopathic effect (CPE) inhibition assay; type: cell-based, Coxsackievirus A24; settings: Table 3, MRC-5, 37° C., 2 days; for EC50: Enterovirus C, MRC5, 48 h
[3] = tested on: echovirus 9 and echovirus 11; experiment: Multicycle CPE reduction assay, text summary; type: cell-based; settings: Enterovirus B; Table 5; read-out: EC50 against echovirus 9 and echovirus 11
polioviruses 1, 2 and 3 = experiment: organism not typed; type: cell-based; settings: read-out: EC50 against polioviruses 1, 2 and 3
Coxsackie A9 = experiment: Multicycle CPE reduction assay; type: cell-based, Coxsackievirus A9; settings: Enterovirus B, 37° C. in BGM cells
[4] = tested on: mock-infected cells (HeLa, MRC-5, RD); settings: human
Rhino 59 = experiment: Multicycle CPE reduction assay; type: cell-based, rhinovirus 59; settings: Enterovirus; 37° C. in HeLa cells
Polio-virus 2 = experiment: microbe, parasite or virus in culture; type: cell-based, Poliovirus 2; settings: Enterovirus C, read-out: EC50 Polio-virus 2
Coxsackie-virus B4 = experiment: Cytopathic effect (CPE) inhibition assay; type: cell-based, Coxsackievirus B4; settings: Enterovirus B, HeLa37, 48 h; Table 3; HeLa, 37° C., 2 days
[5] = Enterovirus, HeLa, read-out: Rhino 70 EC50, 37° C. in HeLa cells

Structure (SMILES)	EC50 (Coxsackie-virus B3) [µg/mL]	EC50 (Rhino 15) [nM]	CC50 at 3 days [1] [nM]	EC50 (Polio 1) [nM]	EC50 (Coxsackie-virus A24 (HG)) [µg/mL]	EC50 (Echo 11) [nM]	EC50 (Polio-virus 3) [µg/mL]	EC50 (Rhino 9) [nM]	EC50 (Rhino 41) [nM]	EC50 (Rhino 45; Enterovirus, HeLa) [nM]	CC50 (in vitro) [µg/mL]	EC50 (Echo 9) [nM]	EC50 (Rhino 39) [nM]	EC50 (Rhino 29) [nM]	melting point [°C]	EC50 (Coxsackie-virus B1) [µg/mL]	EC50 (Rhino 89) [nM]	EC50 (Rhino 63) [nM]	EC50 (Rhino 85) [nM]	EC50 (Rhino 14) [nM]	also measured
CC(=O)Oc1cc(C(C)C)ccc1C1(OC(C)=O)C(=O)c2ccccc2C1=O [Example 19, Acetic acid 2-(2-acetoxy-4-isopropyl-phenyl)-1,3-dioxo-indan-2-yl ester]	< 0.01	> 50000	≥ 100000	790 ± 360	< 1	17 ± 7.8	< 1	> 50000	> 50000	4600 ± 8.3	17.7 (≈ 46.5 µM)	17 ± 6.7	> 50000	> 50000	136 to 137	< 0.01	> 50000	> 50000	> 50000	450 ± 410	EC50 (Coxsackie B3): < 10 nM; CC50 (uninfected cell cultures; Table 5, listed as Ex. 19): > 100000 nM; EC50 (Rhino 72): 4600 ± 92 nM; EC50 (Coxsackie A16): 64 ± 10 nM; EC50 (Rhino 42): > 50000 nM; EC50 [2]: 10 nM; EC50 (Rhino 86): 26000 ± 18000 nM; EC50 (Coxsackie A21): 670 ± 130 nM; EC50 (Rhino 70; [5]): 2000 ± 120 nM; EC50 (Polio 3): < 1000 nM; EC50 (Entero-virus 70): < 0.01 µg/mL; EC50 (Rhino 2): > 50000 nM; EC50 (Entero 71): 100 ± 1.8 nM
CC(=O)Oc1cc(C(C)C)ccc1C1(OC(C)=O)C(=O)c2cccc(N)c2C1=O (centres unmarked) [Example 36, Acetic acid 2-(2-acetoxy-4-isopropyl-phenyl)-4-amino-1,3-dioxo-indan-2-yl ester]	< 0.01	1500 ± 240	> 50000	220 ± 50	< 0.01	8.2 ± 1.9	< 0.01	1200 ± 120	540 ± 3	≤ 78	9.42 (≈ 23.8 µM)	11 ± 3.2	1400 ± 200	5500 ± 720	148 to 151	< 0.01	490 ± 38	> 10000	7500 ± 1200	350 ± 320	EC50 (Coxsackie-virus A24 (DN)): < 0.1 µg/mL; EC50 (Coxsackie B3): < 10 nM; EC50 [3]: 8.2 nM; EC50 (Rhino 45; listed as Ex. 36): < 78 nM; EC50 (polioviruses 1, 2 and 3): 10 nM; EC50 (Rhino 70; Enterovirus, HeLa, 37° C. in HeLa cells, read-out: Rhino 70 EC50): ≤ 78 nM; EC50 (Rhino 70; read-out: Rhino 70 EC50, 37° C. in HeLa cells, listed as Ex. 36): > 78 nM; EC50 (Coxsackie A9): 7 ± 0.18 nM; EC50 (Polio 3): < 10 nM; EC50 (Rhino 2): 7800 ± 570 nM; EC50 (Entero 71): 6.7 nM
CCCCC(=O)NC1(c2ccc(C(C)C)cc2OC(=O)CCCC)C(=O)c2ccccc2C1=O [Example 69, 2-(1,3-Dioxo-2-pentanamido-2,3-dihydro-1H-inden-2-yl)-5-isopropylphenyl pentanoate]	–	–	–	–	–	–	–	–	–	–	–	–	–	–	128 to 130	–	–	–	–	–	EC50 Coxsackie-virus B3 (Coxsackie-virus B3): <0.01 µg/mL; EC50 Coxsackie-virus A24 (DN) (Coxsackie-virus A24 (DN)): <1.0 µg/mL; EC50 Coxsackie-virus A24 (HG) (Coxsackie-virus A24 (HG)): <1.0 µg/mL; EC50 Polio-virus 3 (Polio-virus 3; Table 3, HeLa, 37° C., 2 days): <1.0 µg/mL; EC50 Coxsackie-virus B1 (Coxsackie-virus B1): <0.01 µg/mL; CC50 [4]: >117 µg/mL
CC(=O)Oc1cc(C)ccc1C1(OC(C)=O)C(=O)c2ccccc2C1=O [Example 74, 2-2-Acetoxy-1,3-dioxo-2,3-dihydro-1H-inden-2-yl]	–	> 50000	≥ 100000	20000 ± 14000	–	700 ± 240	–	> 50000	> 50000	> 50000	–	610 ± 38	> 50000	> 50000	145 to 147	–	> 50000	> 50000	> 50000	> 50000	CC50 (uninfected cell cultures; Table 5, listed as Ex. 74): > 100000 nM; EC50 (Rhino 72): > 50000 nM; EC50 (Rhino 59): > 50000 nM; EC50 (Coxsackie A16): 13000 ± 320 nM; EC50 (Rhino 42): > 50000 nM; EC50 (Rhino 86): 26000 ± 18000 nM; EC50 (Coxsackie A21): 26000 ± 340 nM; EC50 (Rhino 70; [5]): > 50000 nM; EC50 (Rhino 2): > 50000 nM; EC50 (Entero 71): 3300 ± 1600 nM
CCCCC(=O)NC1(c2ccc(C(C)C)cc2OC(=O)CCCC)C(=O)c2ccccc2C1=O [Example 49, 2-(1,3-Dioxo-2-pentanamido-2,3-dihydro-1H-inden-2-yl)-5-isopropylphenyl pentanoate]	< 0.01	–	–	–	< 1	–	< 1	–	–	–	> 100	–	–	–	–	< 0.01	–	–	–	–	EC50 (Coxsackie-virus A24 (DN)): < 1 µg/mL; EC50 (Polio-virus 2): < 1 µg/mL; EC50 (Coxsackie-virus B4): < 0.01 µg/mL
